The values below come from patent publication US20240325409A1, “Fused Heterotetracyclic Antiviral Agents” (Enanta Pharmaceuticals, Inc., priority 2023, published 2024).

One assay relates to HBV. Nature of the assay: HBV infection of HepG2-NTCP cells, HBeAg AlphaLISA readout. In kind it is cell-based. To be noted: Hepatitis B virus, 192 h, 2000 GE/cell, HBeAg in supernatant at day 8 post infection, 50% reduction relative to DMSO controls, read-out: Cellular EC50. As to the method:
(§1) HepG2-NTCP A3 cells were maintained in DMEM media supplemented with GlutaMAX™, 10% fetal bovine serum, 1% penicillin/streptomycin, and 5 ug/mL puromycin at 37° C. in a humidified atmosphere with 5% CO2 in a collagen-coated tissue culture flask.
HepG2-NTCP cells were seeded in 384 well plate containing 16,000 cells/well two days prior to the infection. On the day of infection, compounds were 3-fold serially diluted in DMSO and pre-incubated with HepG2-NTCP cells for two hours before purified HBV addition. HBV infection was carried out at 2000 GE/cell with 4% PEG, and the final concentration of DMSO is 0.5%. On day one post infection, HBV-containing media was aspirated, cells were washed once with PBS and then maintained in 2.5% DMSO containing media for the remainder of the assay.
Supernatants from infected HepG2-NTCP cells were collected at day 8 post infection, and the amount of viral antigen HBeAg was measured by HBeAg AlphaLISA detection kit (PerkinElmer) following the manufacturer's recommended protocol. Irrespective of readout, compound concentrations that reduce viral product accumulation in supernatants by 50% relative to DMSO controls (EC50) are reported. EC50 ranges are as follows: A<0.1 µM; B 0.1-1 µM; C>1 µM.

A further assay relates to HDV. Nature of the assay: HDV infection of HepG2-NTCP cells, viral RNA by RT-qPCR. To be noted: 288 h, 800 GE/cell, viral RNA at day 12 post infection, 50% reduction relative to DMSO controls, read-out: Cellular EC50. Type of assay: cell-based. As to the method:
as §1
HDV virus collected from the supernatants of HuH7-END cells was purified in the presence of 6% polyethylene glycol (PEG). Viral titer was then quantified by RT-qPCR using HDV specific primers against a reference standard. For HDV infection, HepG2-NTCP cells were seeded in 96-well plates at 60,000 cells/well. On the day of infection, compounds were 4-fold serially diluted in DMSO and pre-incubated with HepG2-NTCP cells for two hours before infecting with 800 GE/cell of HDV in 4% PEG. On day one post infection, HDV-containing media was aspirated, cells were washed once with PBS and then maintained in 2.5% DMSO containing media for the remainder of the assay. Viral RNA was isolated using RNeasy kits (Qiagen) at day 12 post infection and reverse transcribed into cDNA using High-Capacity RNA-to-cDNA Kit (Thermo Fisher). Relative HDV gene expression was quantified by RT-qPCR after normalization to expression of a housekeeping gene. Irrespective of readout, compound concentrations that reduce viral RNA by 50% relative to DMSO controls (EC50) are reported. EC50 ranges are as follows: A<0.1 µM; B 0.1-1 µM; C>1 µM.
(In qPCR the cycle at which signal appears reflects the starting amount.)

Molecules are shown by their SMILES.

The EC50 is the concentration at which the effect is half-maximal. `CN1[C@H](C2CCC2)CN(c2ccccc2)c2cc3c(cc2S1(=O)=O)-c1cc(C(=O)O)sc1CO3` [Example 16]: in the assay with HBV, the EC50 was below 100 nM. As to `CC(C)[C@@H]1CN(c2ccccc2)c2cc3c(cc2S(=O)(=O)N1C)-c1cc(C(=O)O)ccc1CO3` [Example 6], the EC50 with HBV was 100 to 1000 nM. For `CN1[C@H](C2CCC2)CN(c2ccccc2)c2cc3c(cc2S1(=O)=O)-c1cc(C(=O)O)c(F)c(F)c1CO3` [Example 13], the EC50 with HBV was below 100 nM. For `CCCC[C@@H]1CN(c2ccccc2)c2cc3c(cc2S(=O)(=O)N1C)-c1cc(C(=O)O)ccc1[C@H](C(F)(F)F)O3` [Example 21a, (5R,10R)-10-butyl-11-methyl-8-phenyl-5-(trifluoromethyl)-8,9,10,11-tetrahydro-5H-benzo[3,4]chromeno[7,6-f][1,2,5]thiadiazepine-2-carboxylic acid 12,12-dioxide], the 50% effective concentration (EC50) in the assay on HBV is 100 to 1000 nM. As to `CN1[C@H](C2CCCCC2)CN(c2ccccc2)c2cc3c(cc2S1(=O)=O)-c1cc(C(=O)O)ccc1CO3` [Example 8], the EC50 in the assay on HBV is below 100 nM. On to `CN1[C@H](C2CCC2)CN(c2ccccc2)c2cc3c(cc2S1(=O)=O)-c1cc(C(=O)O)ccc1CO3` [Example 1, (R)-10-cyclobutyl-11-methyl-8-phenyl-8,9,10,11-tetrahydro-5H-benzo[3,4]chromeno[7,6-f][1,2,5]thiadiazepine-2-carboxylic acid 12,12-dioxide], for which the half-maximal effective concentration (EC50) in the assay on HDV was below 100 nM; in the assay on HBV, 100 to 1000 nM.

`CN1[C@H](C2CCCCC2)CN(c2ccccc2)c2cc3c(cc2S1(=O)=O)-c1cc(C(=O)O)c(F)c(F)c1CO3` [Example 14]: the half-maximal effective concentration (EC50) in the assay on HBV was below 100 nM. Consider `CCCC[C@@H]1CN(c2ccccc2)c2cc3c(cc2S(=O)(=O)N1C)-c1cc(C(=O)O)c(F)cc1CO3` [Example 10, (R)-10-butyl-3-fluoro-11-methyl-8-phenyl-8,9,10,11-tetrahydro-5H-benzo[3,4]chromeno[7,6-f][1,2,5]thiadiazepine-2-carboxylic acid 12,12-dioxide], for which the EC50 in the assay with HBV was below 100 nM.
